According to article PMC11796197, “Targeting AI-2 quorum sensing: harnessing natural products against Streptococcus suis biofilm infection” (Veterinary Research, 2025):

Molecular target: LuxS (S-ribosylhomocysteinase) (Streptococcus suis, UniProt A4VZM6)
Experiment: Ellman (DTNB) homocysteine assay, […] nm, SRH as substrate
Format: biochemical
Settings: SRH 0-1200 uM, sodium phosphate buffer, 37 C, 15 min, LuxS 1 mg/mL

Chain of LuxS (S-ribosylhomocysteinase) (A4VZM6 whole entry): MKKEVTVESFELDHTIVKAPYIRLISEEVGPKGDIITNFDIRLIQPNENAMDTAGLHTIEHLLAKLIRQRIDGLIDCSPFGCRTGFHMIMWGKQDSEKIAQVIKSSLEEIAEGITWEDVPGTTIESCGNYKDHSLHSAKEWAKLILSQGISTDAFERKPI

SMILES | Ellman (DTNB) homocysteine assay, 412 nm, SRH as substrate (noncompetitive) | Ellman (DTNB) homocysteine assay, 412 nm, SRH as substrate (competitive)
O=C(/C=C/c1ccc(O)c(O)c1/C=C/c1ccc(O)c(O)c1)O[C@H](Cc1ccc(O)c(O)c1)C(=O)O [SAA, salvianolic acid A] | suggesting a noncompetitive inhibitory effect of SAA on LuxS | –
COc1ccc(/C=C/c2cc(O)cc(O[C@@H]3O[C@H](CO)[C@@H](O)[C@H](O)[C@H]3O)c2)cc1O [RH, rhapontin] | – | indicating a competitive inhibitory impact of RH on LuxS
